Assay results from PubChem BioAssay AID2060510 (Molecular Pharmacology Branch, DTP, NCI, 2025).

Test system: 439559-082-T-J2-PDC spheroids viability
Assay: Anticancer human tumor 439559-082-T-J2-PDC patient-derived colon adenocarcinoma cell line growth inhibition [GQUAD]
Details: for IC50: curve of first compound; for viability, T/C: stronger effect = lower value; active = viability on the fitted dose curve at most 10% of control; inactive = the rest
Summary of the method: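 Tumor cells were grown as complex spheroids with HUVEC endothelial cells and mesenchymal stem cells as stroma. G-quadruplex stabilizers were combined with targeted agents over half-log dilutions from near the clinical Cmax, or from 10 microM.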

[1] = second compound 0.0316 µM, first compound 0.000999 µM
[2] = second compound 0.0316 µM, first compound 0.00316 µM
[3] = second compound 0.0316 µM, first compound 0.00999 µM
[4] = second compound 0.0316 µM, first compound 0.0316 µM
[5] = second compound 0.0316 µM, first compound 0.0999 µM
[6] = second compound 0.0316 µM, first compound 0.316 µM
[7] = second compound 0.1 µM, first compound 0.000999 µM
[8] = second compound 0.1 µM, first compound 0.00316 µM
[9] = second compound 0.1 µM, first compound 0.00999 µM
[10] = second compound 0.1 µM, first compound 0.0316 µM
[11] = second compound 0.1 µM, first compound 0.0999 µM
[12] = second compound 0.1 µM, first compound 0.316 µM
[13] = second compound 0.316 µM, first compound 0.000999 µM
[14] = second compound 0.316 µM, first compound 0.00316 µM
[15] = second compound 0.316 µM, first compound 0.00999 µM
[16] = second compound 0.316 µM, first compound 0.0316 µM
[17] = second compound 0.316 µM, first compound 0.0999 µM
[18] = second compound 0.316 µM, first compound 0.316 µM
[19] = second compound 1 µM, first compound 0.000999 µM
[20] = second compound 1 µM, first compound 0.00316 µM
[21] = second compound 1 µM, first compound 0.00999 µM
[22] = second compound 1 µM, first compound 0.0316 µM
[23] = second compound 1 µM, first compound 0.0999 µM
[24] = second compound 1 µM, first compound 0.316 µM
[25] = second compound 3.16 µM, first compound 0.000999 µM
[26] = second compound 3.16 µM, first compound 0.00316 µM
[27] = second compound 3.16 µM, first compound 0.00999 µM
[28] = second compound 3.16 µM, first compound 0.0316 µM
[29] = second compound 3.16 µM, first compound 0.0999 µM
[30] = second compound 3.16 µM, first compound 0.316 µM
[31] = second compound 10 µM, first compound 0.000999 µM
[32] = second compound 10 µM, first compound 0.00316 µM
[33] = second compound 10 µM, first compound 0.00999 µM
[34] = second compound 10 µM, first compound 0.0316 µM
[35] = second compound 10 µM, first compound 0.0999 µM
[36] = second compound 10 µM, first compound 0.316 µM
[37] = second compound 0.0316 µM, first compound 0.1 µM
[38] = second compound 0.0316 µM, first compound 1 µM
[39] = second compound 0.0316 µM, first compound 3.16 µM
[40] = second compound 0.0316 µM, first compound 10 µM
[41] = second compound 0.1 µM, first compound 0.1 µM
[42] = second compound 0.1 µM, first compound 1 µM
[43] = second compound 0.1 µM, first compound 3.16 µM
[44] = second compound 0.1 µM, first compound 10 µM
[45] = second compound 0.316 µM, first compound 0.1 µM
[46] = second compound 0.316 µM, first compound 1 µM
[47] = second compound 0.316 µM, first compound 3.16 µM
[48] = second compound 0.316 µM, first compound 10 µM
[49] = second compound 1 µM, first compound 0.1 µM
[50] = second compound 1 µM, first compound 1 µM
[51] = second compound 1 µM, first compound 3.16 µM
[52] = second compound 1 µM, first compound 10 µM
[53] = second compound 3.16 µM, first compound 0.1 µM
[54] = second compound 3.16 µM, first compound 1 µM
[55] = second compound 3.16 µM, first compound 3.16 µM
[56] = second compound 3.16 µM, first compound 10 µM
[57] = second compound 10 µM, first compound 0.1 µM
[58] = second compound 10 µM, first compound 1 µM
[59] = second compound 10 µM, first compound 3.16 µM
[60] = second compound 10 µM, first compound 10 µM
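Note: spheroids exposed to the agents for 7 days before readout.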
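Throughout, for viability, T/C: percent of luminescence signal in DMSO vehicle wells taken as 100% viability.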

CC[C@@]1(O)C(=O)OCc2c1cc1n(c2=O)Cc2cc3c(CN(C)C)c(O)ccc3nc2-1 + Cc1[nH]c2ccc(F)cc2c1-c1nc2c3cccnc3c3ncccc3c2[nH]1
inactive: viability, T/C [1] 99.4% | viability, T/C [2] 109% | viability, T/C [3] 94.5% | viability, T/C [4] 99.7% | viability, T/C [5] 96.3% | viability, T/C [6] 82.4% | viability, T/C [7] 101% | viability, T/C [8] 102% | viability, T/C [9] 99.5% | viability, T/C [10] 96.2% | viability, T/C [11] 103% | viability, T/C [12] 83% | viability, T/C [13] 98.1% | viability, T/C [14] 92.1% | viability, T/C [15] 89.1% | viability, T/C [16] 99.2% | viability, T/C [17] 90.5% | viability, T/C [18] 83.3% | viability, T/C [19] 94% | viability, T/C [20] 101% | viability, T/C [21] 98.6% | viability, T/C [22] 84.9% | viability, T/C [23] 93.3% | viability, T/C [24] 83.6% | viability, T/C [25] 81.8% | viability, T/C [26] 81.2% | viability, T/C [27] 88.9% | viability, T/C [28] 78.2% | viability, T/C [29] 86.2% | viability, T/C [30] 73.5% | viability, T/C [31] 86.4% | viability, T/C [32] 78.7% | viability, T/C [33] 75.3% | viability, T/C [34] 76% | viability, T/C [35] 90.1% | viability, T/C [36] 56.9%
> 316 nM: IC50 (second compound 0.0316 µM) | IC50 (second compound 0.1 µM) | IC50 (second compound 0.316 µM) | IC50 (second compound 1 µM) | IC50 (second compound 3.16 µM) | IC50 (second compound 10 µM)

CCc1c2c(nc3ccc(O)cc13)-c1cc3c(c(=O)n1C2)COC(=O)[C@]3(O)CC + Cc1[nH]c2ccc(F)cc2c1-c1nc2c3cccnc3c3ncccc3c2[nH]1
227 nM: IC50 (second compound 1 µM)
85.4 nM: IC50 (second compound 3.16 µM)
223 nM: IC50 (second compound 0.0316 µM)
167 nM: IC50 (second compound 10 µM)
inactive: viability, T/C [1] 93.4% | viability, T/C [2] 90.6% | viability, T/C [3] 88.5% | viability, T/C [4] 78.6% | viability, T/C [5] 63.2% | viability, T/C [6] 44.2% | viability, T/C [7] 102% | viability, T/C [8] 93.1% | viability, T/C [9] 73.2% | viability, T/C [10] 73.8% | viability, T/C [11] 65.8% | viability, T/C [12] 49.3% | viability, T/C [13] 109% | viability, T/C [14] 97.1% | viability, T/C [15] 84.5% | viability, T/C [16] 76.4% | viability, T/C [17] 70.2% | viability, T/C [18] 51.1% | viability, T/C [19] 90.9% | viability, T/C [20] 79.8% | viability, T/C [21] 77.8% | viability, T/C [22] 70.7% | viability, T/C [23] 65.6% | viability, T/C [24] 43.6% | viability, T/C [25] 89.1% | viability, T/C [26] 74.3% | viability, T/C [27] 62.9% | viability, T/C [28] 65.6% | viability, T/C [29] 51.9% | viability, T/C [30] 32.5% | viability, T/C [31] 73% | viability, T/C [32] 75.3% | viability, T/C [33] 65.6% | viability, T/C [34] 60.7% | viability, T/C [35] 63.1% | viability, T/C [36] 39%
> 316 nM: IC50 (second compound 0.1 µM) | IC50 (second compound 0.316 µM)

COc1cc(C2c3cc4c(cc3C(OC3OC5COC(C)OC5C(O)C3O)C3COC(=O)C23)OCO4)cc(OC)c1O (stereo not drawn) + Cc1[nH]c2ccc(F)cc2c1-c1nc2c3cccnc3c3ncccc3c2[nH]1
inactive: viability, T/C [4] 98.1% | viability, T/C [37] 99.7% | viability, T/C [6] 97.9% | viability, T/C [38] 87.8% | viability, T/C [39] 86.5% | viability, T/C [40] 66.1% | viability, T/C [10] 102% | viability, T/C [41] 98.2% | viability, T/C [12] 97.5% | viability, T/C [42] 87.1% | viability, T/C [43] 96.9% | viability, T/C [44] 64.9% | viability, T/C [16] 108% | viability, T/C [45] 101% | viability, T/C [18] 103% | viability, T/C [46] 94.2% | viability, T/C [47] 85.6% | viability, T/C [48] 65.3% | viability, T/C [22] 98.2% | viability, T/C [49] 87.8% | viability, T/C [24] 89.4% | viability, T/C [50] 83.8% | viability, T/C [51] 86.7% | viability, T/C [52] 58.9% | viability, T/C [28] 76.5% | viability, T/C [53] 85.2% | viability, T/C [30] 84.1% | viability, T/C [54] 73.5% | viability, T/C [55] 79.9% | viability, T/C [56] 56.7% | viability, T/C [34] 88.5% | viability, T/C [57] 85.3% | viability, T/C [36] 83.8% | viability, T/C [58] 90.6% | viability, T/C [59] 78.5% | viability, T/C [60] 57.2%
> 10000 nM: IC50 (second compound 0.0316 µM) | IC50 (second compound 0.1 µM) | IC50 (second compound 0.316 µM) | IC50 (second compound 1 µM) | IC50 (second compound 3.16 µM) | IC50 (second compound 10 µM)

COc1cccc2c1C(=O)c1c(O)c3c(c(O)c1C2=O)CC(O)(C(=O)CO)CC3OC1CC(N)C(O)C(C)O1 (stereo not drawn) + Cc1[nH]c2ccc(F)cc2c1-c1nc2c3cccnc3c3ncccc3c2[nH]1
9820 nM: IC50 (second compound 3.16 µM)
5250 nM: IC50 (second compound 10 µM)
> 10000 nM: IC50 (second compound 0.0316 µM) | IC50 (second compound 0.1 µM) | IC50 (second compound 0.316 µM) | IC50 (second compound 1 µM)
inactive: viability, T/C [4] 98.5% | viability, T/C [37] 100% | viability, T/C [6] 96.2% | viability, T/C [38] 82.1% | viability, T/C [39] 61.5% | viability, T/C [40] 54.2% | viability, T/C [10] 107% | viability, T/C [41] 99% | viability, T/C [12] 89.1% | viability, T/C [42] 87.5% | viability, T/C [43] 69.5% | viability, T/C [44] 54.1% | viability, T/C [16] 98.9% | viability, T/C [45] 95.3% | viability, T/C [18] 85.9% | viability, T/C [46] 89.2% | viability, T/C [47] 62.7% | viability, T/C [48] 50.8% | viability, T/C [22] 87.9% | viability, T/C [49] 87% | viability, T/C [24] 82.1% | viability, T/C [50] 83.2% | viability, T/C [51] 67.3% | viability, T/C [52] 56.2% | viability, T/C [28] 80.4% | viability, T/C [53] 75% | viability, T/C [30] 85.2% | viability, T/C [54] 64.2% | viability, T/C [55] 63.3% | viability, T/C [56] 49.7% | viability, T/C [34] 92.3% | viability, T/C [57] 80.3% | viability, T/C [36] 69.8% | viability, T/C [58] 68.2% | viability, T/C [59] 53.2% | viability, T/C [60] 43.9%
